Assay results as given in article PMC5460445, “Pharmacokinetic Comparison of 20(R)- and 20(S)-Ginsenoside Rh1 and 20(R)- and 20(S)-Ginsenoside Rg3 in Rat Plasma following Oral Administration of Radix Ginseng Rubra and Sheng-Mai-San Extracts” (Evidence-based Complementary and Alternative Medicine : eCAM, 2017).

Experiment: Pharmacokinetic study in rats after oral administration of Radix Ginseng Rubra or SMS extracts (LC-MS of plasma)
Type: in vivo, Male Sprague-Dawley rats
Set-up: AUC(0–t) / AUC(0–∞): unit not given here
Conditions: for T max / AUC(0–t) / AUC(0–∞) / C max / t 1/2: rat plasma; for AUC(0–t) / AUC(0–∞) / C max / t 1/2: mean ± SD
Excerpt: A Shimadzu 2020 LC-MS system, with an electrospray ionization interface (ESI) source and Shimadzu LCMS LabSolution Workstation software for data processing, was utilized to perform the analytical procedures. The system includes two Shimadzu LC-20AD pumps, a Shimadzu SIL-20A autosampler, a Shimadzu CTO-20A column oven, a CBM-20A system controller, and a Shimadzu DGU-20A3 online degasser. A Q-array-octapole-quadrupole mass analyzer was used as the detector.
The chromatographic separation was carried on a Diamonsil C18 column (150 mm × 4.6 mm id, 5 μm; Dikma, China) with the mobile phase containing 0.5 mmol/L ammonium chloride in double-distilled water (A) and acetonitrile (B) at a flow rate of 1.0 mL/min. A diverter valve was used to direct 0.3 mL/min HPLC elute to MS detector and 0.7 mL/min elute to a waste container. A gradient elution program was used as follows: 0.01→6.0 min, 38% B; 6.0→6.5 min, 38→50% B; 6.5→15.0 min, 50% B; 15.0→15.5 min, 50→38% B. The column temperature was kept constant at 40°C.
The negative-ion electrospray ionization mode was utilized under the following source conditions: curved desolvation line (CDL) temperature, 250°C; block temperature, 400°C; interface temperature, 350°C; nebulizing gas flow rate, 1.5 L/min; drying gas flow rate, 10 L/min. CDL voltage, 0 V; Q-array DC (direct current) voltage, 0 V; interface voltage and RF ([…] frequency) voltage were fixed as those in tuning. The chlorinated adducts of molecular ions [M + Cl]^− of 20(R)-ginsenoside Rh1 and 20(S)-ginsenoside Rh1 at m/z 673.45, 20(R)-ginsenoside Rg3 and 20(S)-ginsenoside Rg3 at m/z 819.60, and digoxin (IS) at m/z 815.60 were monitored in selected ion monitoring (SIM) mode.
Radix Ginseng Rubra and Radix Ophiopogonis were cut into slices and Fructus Schisandrae was scrunched into powder before use. Three drugs were mixed in the ratio of 1 : 3 : 1.5 and the total weight was 110 g. The mixture was extracted with water for three times (1 : 10, 1 : 8, and 1 : 6, w/v) at 100°C, 1 h for each time. The SMS extract was obtained and condensed to 0.55 g/mL crude drug. 20 g Radix Ginseng Rubra was treated as above and the extract was condensed to 0.1 g/mL crude drug. SMS and Radix Ginseng Rubra concentrated solution was subjected to D101 macroporous resin and eluted with water followed by 95% ethanol. The 95% ethanol eluate was further concentrated to 5.5 g/mL crude drug for SMS and 1.0 g/mL crude drug for Radix Ginseng Rubra before use.
An aliquot of 300 μL plasma sample was transferred into a centrifuge tube together with 10 μL of IS solution. After vortex-mixing for 30 s, the analytes and IS were extracted from plasma with n-butanol for three times (1 : 3, 1 : 2, and 1 : 2, v/v). Then the organic layer was transferred into another centrifuge tube and evaporated to dryness at 37°C. Finally, the residue was reconstituted in 20 μL methanol and centrifuged at 12,000 ×g for 10 min; 10 μL aliquot was injected into chromatographic system for analysis.
Male Sprague-Dawley rats, 193–215 g in weight, were supplied by Shanghai Slater Experimental Animal Feeding Center (Shanghai, China). The rats were kept in an air-conditioned animal quarter at a temperature of 22 ± 2°C and a relative humidity of 50 ± 10%. The animals were acclimatized to the facilities for four days and then fasted with free access to water for 12 h prior to experiment. Animal experiments were carried out in accordance with the Regulations of Experimental Animal Administration issued by the Ministry of Science and Technology of China. All animal protocols were approved by the Ethics Committee on the Care and Use of Laboratory Animals of China pharmaceutical University.
Rats were divided randomly into two groups (5 rats in each time point per group) and given an oral dose of 1.35 mL/100 g Radix Ginseng Rubra and SMS extracts, respectively, which was derived from the dose in clinical practice with correction. […]

[1] = oral Radix Ginseng Rubra extract 1.35 mL/100 g

CC(C)=CCCC(C)(O)C1CCC2C1C(O)CC1C2(C)CC(OC2OC(CO)C(O)C(O)C2O)C2C(C)(C)C(O)CCC21C [20(S)-Rh1, 20(S)-ginsenoside Rh1]
AUCC (oral Radix Ginseng Rubra extract 1.35 mL/100 g, dose-corrected AUC0–∞): 159.20 ± 26.03 | T max [1]: 0.50 h | AUC(0–t) [1]: 157.53 ± 25.46 | AUC(0–∞) [1]: 159.27 ± 26.03 | C max [1]: 152.49 ± 30.98 ng/mL | t 1/2 [1]: 2.85 ± 0.69 h | T max (oral SMS extract 1.35 mL/100 g): 1.50 h | AUC(0–t) (oral SMS extract 1.35 mL/100 g): 409.48 ± 62.23 | AUC(0–∞) (oral SMS extract 1.35 mL/100 g): 419.75 ± 65.31 | C max (oral SMS extract 1.35 mL/100 g): 195.34 ± 44.91 ng/mL | t 1/2 (oral SMS extract 1.35 mL/100 g): 4.21 ± 1.05^∗ h
